Test results reported in publication PMC7984888, “Inhibitory Activity of Pyrroloisoxazolidine Derivatives against Chlamydia trachomatis” (BioMed Research International, 2021).
Read-outs that look alike come from different tables or passages of the source.

How the values were obtained:
[1] = test system: Chlamydia trachomatis serovar L2 (strain 434/Bu); experiment: Infectious progeny inhibition assay, C. trachomatis L2; type: cell-based
Experimental: (§1) Chlamydia trachomatis serovars D (strain UW-3/CX) and L2 (strain 434/Bu) were purchased from ATCC. HeLa cells purchased from ATCC were routinely cultured in DMEM supplemented with 10% heat-inactivated FBS (Sigma-Aldrich) and 10 μg/mL gentamicin at 37°C in a humidified atmosphere of 5% and were used for chlamydial propagation and cell culture experiments. EBs were purified by Renografin density gradient and stored in sucrose-phosphate-glutamate (SPG) buffer at -80°C [20]. A mouse polyclonal anti-MoPn (C. muridarum strain Nigg II) antibody, which was produced in our laboratory and cross-reacting with C. trachomatis D and L2, was used as a primary antibody for both stains detection.
(§2) Cell monolayers seeded onto coverslips in a 24-well plate were infected with C. trachomatis at a multiplicity of infection (MOI) of 0.2 inclusion-forming units (IFU) per cell. Unless noted, individual compound was added into culture medium at indicated concentrations simultaneously at the time of inoculation. 0.5% DMSO was used as negative control and 11.25 μM tetracycline (Sigma-Aldrich) as positive control. For C. trachomatis D, an additional centrifugation (900 × g at room temperature for 1 h) was applied to facilitate the infection. At 36 hours postinfection (hpi), infected cells were fixed by precooled methanol and then subjected to sequential staining processed with a primary antibody and a FITC-conjugated secondary antibody. Evans blue was used as cytoplasm counterstain. Images were shot by an Olympus IX51 fluorescence microscope.
(§3) Cells monolayers seeded in 48-well plate were infected and treated with chemicals as above. After incubation for 36 hours, infected cells were washed twice, scraped off, and lysed by sonication to release the infectious progeny EBs. Then the lysates were used to reinfect fresh cell monolayers grown in 96-well plate following 1 : 10 serial dilution. The inclusion counts were obtained by immunofluorescence staining as above to calculate the number of infectious progeny EBs in each sample. Percent inhibition was calculated based on EB counts in compound-treated samples relative to DMSO-treated negative control.
(§4) Data from the three independent experiments were presented as mean ± standard deviations (SD) and were subjected to pairwise Student's t-tests. p < 0.05 and p < 0.01 are considered statistically significant and statistically highly significant, respectively. The IC50 values, defined as the concentration of compound at which the generation of infectious progeny EBs was reduced by 50% relative to negative control, were calculated by nonlinear regression from percent inhibition data using the GraphPad Prism 5 software, and presented as mean (95% confidence interval).

[2] = test system: Chlamydia trachomatis serovar D (strain UW-3/CX); experiment: Infectious progeny inhibition assay, C. trachomatis D; type: cell-based; details: generation of infectious progeny EBs in HeLa cells, MOI 0.2, 36 hpi, 1 to 32 μM, read-out: IC50 (μM) Mean (95% confidence interval) Ct D
Experimental: as §1, §2, §3, §4

WST-1 cell viability = type: cell-based; details: human, uninfected HeLa cells, WST-1, relative to DMSO control as 100%
Experimental: (§5) Uninfected HeLa cells were cultured with 32 μM (the highest concentration used in antichlamydial analysis) of individual compound or 0.5% DMSO for 48 h. After 10 μL of WST-1 reagent was added, cells were incubated for an additional 1 h, and absorbance at 450 nm was recorded. The viability of compound-treated cells was calculated by the absorbance relative to that of DMSO control setting as 100% [22].

Uninfected HeLa cells = experiment: WST-1 cell viability; type: cell-based; details: 32 μM, 48 h
Experimental: as §5

[3] = test system: Chlamydia trachomatis L2 EBs; experiment: Elementary body pretreatment assay; type: cell-based; details: for EB entry efficiency after EB pretreatment for 4 h: 32 μM, 4°C; for EB counts that enter into host cells after EB pretreatment for 1 h: 2, 8 and 32 μM, 37°C and 4°C
Experimental: Chlamydia trachomatis L2 EBs suspended in SPG at 4 x 10^5 IFU/mL were exposed to 2, 8, or 32 μM individual compound at 37°C or 4°C for indicated times. EBs then were washed twice to eliminate the residual chemical and were immediately loaded onto HeLa cell monolayers at an MOI of 0.2. The infective EB count was measured by quantifying inclusion numbers at 36 hpi using immunofluorescence staining as above.  Figure 4 Compounds 1 and 2 weakly attenuated the EB infectivity. Chlamydia trachomatis L2 EBs were incubated with 2, 8, or 32 μM compound 1 (a) or 2 (b) at 37°C or 4°C for 1 or 4 h. After washes, EBs were used to infect HeLa cell. At 36 hpi, the inclusion was counted as described in “Materials and Methods.” Data are presented as mean ± SD of three independent assays. ∗∗p < 0.01, compared 4°C with 37°C by Student's t-tests. ^#p < 0.05, compared with each DMSO control sample by Student's t-tests.

C. trachomatis L2 = experiment: Withdrawal assay; type: cell-based, Chlamydia trachomatis; details: progeny EBs at 36 hpi, compared with 36 hpi sample
Experimental: HeLa cells seeded in 48-well plate were infected with C. trachomatis L2 at an MOI of 0.2 and simultaneously treated with 2, 8, or 32 μM of compound. At 2, 12, 24, and 36 hpi, infected cells were washed twice to remove residual inhibitor, and fresh medium was added. At 36 hpi, the production of infectious progeny EBs and percent inhibition data were determined as above.  Figure 6 Withdrawal assay. (a) HeLa cells infected with C. trachomatis L2 were simultaneously treated with 2, 8, or 32 μM individual compound. The compound was removed at 2, 12, 24, or 36 hpi, and the production of progeny EBs was determined at 36 hpi. (b–d) Percent inhibition of progeny EBs was calculated based on data in compound-treated samples relative to DMSO-treated control. Data are presented as mean ± SD of three independent assays. ∗p < 0.05, ∗∗p < 0.01, compared with each 36 hpi positive control sample by Student's t-tests.

[4] = Chlamydia trachomatis, HeLa, generation of infectious progeny EBs in HeLa cells, MOI 0.2, 36 hpi, 1 to 32 μM, read-out: IC50 (μM) Mean (95% confidence interval) Ct L2
[5] = Chlamydia trachomatis, text statements over both strains (L2 and D), infectious progeny EBs, read-out: IC50 values, statement covering both C. trachomatis L2 and D
[6] = generation of infectious progeny EBs in HeLa cells, MOI 0.2, 36 hpi, 1 to 32 μM, read-out: IC50 (μM) Mean (95% confidence interval) Ct L2

IC50 [1, 4] [µM]	IC50 [1, 5] [µM]	IC50 [1, 6] [µM]	IC50 ([2]; Chlamydia trachomatis, HeLa) [µM]	IC50 [2] [µM]	SMILES	viability at 48 h, 32 µM (WST-1 cell viability) [%]	Effect on host cell viability / proliferation activity by WST-1, in words (Uninfected HeLa cells)	EB entry efficiency after EB pretreatment for 4 h [3]	EB counts that enter into host cells after EB pretreatment for 1 h [3]	Inhibitory effect when chemical was removed after 24 hpi (C. trachomatis L2)	Inhibitory effect when chemical was removed before 12 hpi (C. trachomatis L2)
< 10	7.25 to 9.73	7.25	< 10	9.31	c1ccc(C2C3CC(c4ccccc4)N(c4ccccc4)C3ON2c2ccccc2)cc1 (stereo not shown) [Compound 1]	101	did not show cytotoxicity	slightly dropped	did not change	relatively well preserved	significantly reduced
< 10	7.25 to 9.73	8.69	< 10	9.73	Clc1ccc(N2C(c3ccccc3)CC3C(c4ccccc4)N(c4ccccc4)OC32)cc1 (stereo not shown) [Compound 2]	98.3	did not show cytotoxicity	slightly dropped	did not change	relatively well preserved	significantly reduced
